Test [1] deals with IL-1β. As to the kind of experiment: GSDMD-dependent IL-1β release from monocytes. The class given is cell-based, human. The settings on record: nigericin or poly(dA-dT). The protocol:
Primary human monocytes were primed with 1 μg/mL ultrapure LPS and 1μg/mL Pam3CSK4 for 3 h. THP-1 cells were primed with 1 μg/mL Pam3CSK4 for 4 h. Primed cells (1 × 10^5) were treated for 1 h with DMSO vehicle, 5 μM LDC7559 (unless indicated otherwise), 10 μM MCC950, or 50 μM VX765, and then for 1 h with 10 μg/mL nigericin, or 25 μg/mL LPS (electroporated using the NEON electroporation system; ThermoFisher Scientific), or they were transfected over 3 h with 1 μg/mL poly(dA-dT) using lipofectamine 2000 (0.5 μL/well).
LDH released into the culture medium was measured 1-3 h post-activation using a CellTox Green Cytotoxicity assay (Promega). IL-1β secretion was measured using a MSD Cytokine Assay, 96-well multi-array Tissue Culture Kit (Meso Scale Discovery). For immunoblotting, monocytes (2 × 10^6) were treated with 10-50 μM LCD7559 or 50 μM VX765 and electroporated with 25 μg/mL LPS using the NEON electroporation system. Cells were lysed after 1 h using lysis buffer (50 mM Tris pH 7.4, 150 mM NaCl, 10% glycerol, 1% NP-40, 1 mM MgCl and 1X Roche cOmplete protease inhibitor cocktail) and protein concentration was determined via BCA protein assay (Peirce). Antibodies for immunoblotting were GSDMD (L60, Cell Signaling Technologies), cleaved GSDMD-Asp275 (E7H9G, Cell Signaling Technologies) and GAPDH (14C10, Cell Signaling Technologies).

The subject of test [2] is MEK or ERK. Briefly: PMA-induced MEK/ERK activation in neutrophils (western blot). The class given is cell-based, human. The protocol:
Figure S3. Chemoproteomic analysis of covalent crosslinking using photolabeling probe PALP1, related to Figure 2
(A) Volcano plots of the fold change in peptides detected after afﬁnity pull-downs using PALP1 and PALP6. P values were calculated by Student’s t test across
three replicates. (B and C) Spectral counts of all PFKL (B) or TBB4B (C) peptides across replicates (left) or with individual peptides distinguished by color (right). (D)
Activity of recombinant NAMPT. Bars represent the mean ± s.d. of 3 independent experiments. (E) western blots of PMNs pretreated with 0.5 mM NA-11 or 1 mM
MEK1/2 inhibitor U0126 for 30 min, and then activated with 50 nM PMA for 30 min. Results are representative of 3 independent experiments.
(1 picture or pasted object on this page, not shown here)
On the technique in general: In western blotting, separated proteins are transferred to a membrane and probed.

Test [3] concerns the target T1, 14-3-3 protein beta/alpha (YWHAB) (Homo sapiens, UniProt P31946).
T1 construct: endogenous in cells; host or cells: human blood leukocytes, labelled live
As to the kind of experiment: Photoaffinity labeling pull-down (Data S1). The settings on record: Comparison PALP1_NA11-PALP1. The class given is binding. On the procedure:
Buffy coats (100 mL) were diluted with ice-cold water (540 mL) for 30 s to lyse red blood cells. Following addition of 10 x HBSS buffer (50 mL) leukocytes were pelleted for 3 min at 300 x g, then washed twice in D-PBS and resuspended in RPMI medium. Cells (2 × 10^7) were plated on 15-cm dishes in DMSO vehicle, 1 μM PALP1 or 1 μM PALP6 for 30 min at 37°C. For competition, 10 μM NA-11 was added for 15 min, and then 1 μM PALP1 was added for an additional 30 min. To crosslink the photoaffinity probe, cells were UV-irradiated (High intensity mercury spot lamp, 100W, 365 nm, UVP) in RPMI for 5 min on ice. Cells were lysed in 200 μL 10 mM Tris pH 7.5, 150 mM NaCl, 1% NP-40, 2.5 mM MgCl2, 0.5 mM CaCl2, 2% glycerol, 10 μg/mL DNase-I, and 1 x EDTA-free Protease inhibitor cocktail. Lysates from 5 plates for each condition were pooled and incubate 10 min on ice.
Biotin-DADPS tagging, biotin-streptavidin affinity purification, and on-bead digestion were performed as described ([Hewings et al., 2018]). Briefly, lysates were cleared by centrifugation and the lysate concentration adjusted to 5 mg/mL. Streptavidin Ultralink Resin (100 μL of 50% slurry, Pierce) was washed twice with PBS and mixed with 1 mL of lysate for 30 min at room temperature. […]
For the classical TPP, quantitative data from each temperature were used to generate a thermal titration curve and calculate a melting point. […]

T1 sequence (P31946 whole entry): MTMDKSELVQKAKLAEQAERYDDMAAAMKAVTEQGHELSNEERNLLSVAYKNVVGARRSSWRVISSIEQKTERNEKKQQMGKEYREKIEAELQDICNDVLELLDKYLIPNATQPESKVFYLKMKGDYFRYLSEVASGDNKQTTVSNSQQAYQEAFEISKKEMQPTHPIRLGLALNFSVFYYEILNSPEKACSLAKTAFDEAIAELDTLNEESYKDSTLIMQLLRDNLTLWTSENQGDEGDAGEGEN

Consider `COc1ccccc1-c1cc2n(n1)Cc1ccc(NC(C)=O)cc1OC2` [LDC7559, reference compound], for which the “GSDMD-dependent release of IL-1β” value in test [1] was “occurred normally”.

With `CC(=O)Nc1ccc2c(c1)OCc1cc(-c3ccccc3C#CCCCO)nn1C2` [NA-11], the “PMA-induced activation of MEK or ERK” value in test [2] was “did not perturb PMA-induced activation of MEK or ERK”. Also, in test [3], the log2FC came out at 0.13.
